In US20230045421A1 (priority 2018, published 2023):

These compounds were tested on HBV rcDNA (assay: HepDE19 assay with bDNA quantitation of HBV rcDNA). Conditions: HepDE19 assay, inhibition of formation of rcDNA; read-out: DE-19bDNA EC50.
Format: cell-based, hepatitis B virus
How it was run: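 HepDE19 cells (HepG2-derived, Tet-regulated HBV replication) were deprived of tetracycline and then exposed to compounds for 7 days at 37 °C in 0.5% DMSO, 8-point titration from 25 μM. rcDNA was quantified by bDNA and EC50/EC90 came from 4-parameter fits. CC50 was measured by CellTiter-Glo ATP content on replicate plates after 4 days.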
For `CC(c1c[nH]c(=O)c2ccccc12)N(CC1CCCCC1)C(=O)Nc1ccc(F)c(Cl)c1` (single isomer, unassigned) [Compound 194, 3-(3-Chloro-4-fluorophenyl)-1-(cyclohexylmethyl)-1-(1-(1-oxo-1,2-dihydroisoquinolin-4-yl)ethyl)urea], the EC50 was 0.95 µM.
Work on `CC(c1cnc(NCCO)c2ccccc12)N(C)C(=O)Nc1ccc(F)c(Cl)c1` (single isomer, unassigned) [Compound 243, 3-(3-Chloro-4-fluorophenyl)-1-(1-(1-((2-hydroxyethyl)amino)isoquinolin-4-yl)ethyl)-1-methylurea] yielded an EC50 of 9.9 µM.
In the case of `CC(c1c[nH]c(=O)c2ccc(Cl)cc12)N(C)C(=O)Nc1ccc(F)c(Cl)c1` (single isomer, unassigned) [Compound 172, 1-(1-(6-Chloro-1-oxo-1,2-dihydroisoquinolin-4-yl)ethyl)-3-(3-chloro-4-fluorophenyl)-1-methylurea], the EC50 is reported as 0.12 µM.
For `CC(c1cnc(NCCN)c2ccccc12)N(C)C(=O)Nc1ccc(F)c(Cl)c1` (single isomer, unassigned) [Compound 250, 1-(1-(1-((2-Aminoethyl)amino)isoquinolin-4-yl)ethyl)-3-(3-chloro-4-fluorophenyl)-1-methylurea], the EC50 was 1.5 µM.
In the case of `Cc1cc(NC(=O)N(C)C(C)c2c(C)[nH]c(=O)c3ccccc23)ccc1F` (single isomer, unassigned) [Compound 236, 3-(4-Fluoro-3-methylphenyl)-1-methyl-1-(1-(3-methyl-1-oxo-1,2-dihydroisoquinolin-4-yl)ethyl)urea], the EC50 is reported as 0.41 µM.

Same assay, conditions: HepDE19 assay, inhibition of formation of relaxed circular DNA (rcDNA), bDNA quantitation; read-out: DE-19bDNA EC50
With `CC(c1c[nH]c(=O)c2cc(F)c(F)cc12)N(C)C(=O)NCc1ccc(F)c(Cl)c1` (single isomer, unassigned) [Compound 484, 3-(3-Chloro-4-fluorobenzyl)-1-(1-(6,7-difluoro-1-oxo-1,2-dihydroisoquinolin-4-yl)ethyl)-1-methylurea] the EC50 was 14 µM.
Work on `CC(c1c[nH]c(=O)c2c(F)c(F)ccc12)N(CCS(N)(=O)=O)C(=O)Nc1ccc(F)cc1` (single isomer, unassigned) [Compound 395, 2-(1-(1-(7,8-Difluoro-1-oxo-1,2-dihydroisoquinolin-4-yl)ethyl)-3-(4-fluorophenyl)ureido)ethane-1-sulfonamide] yielded an EC50 of 0.3 µM.
Work on `CC(c1c[nH]c(=O)c2c(F)cc(F)cc12)N(C)C(=O)Nc1ccc(F)c(Cl)c1` (single isomer, unassigned) [Compound 369, 3-(3-Chloro-4-fluorophenyl)-1-(1-(6,8-difluoro-1-oxo-1,2-dihydroisoquinolin-4-yl)ethyl)-1-methylurea] yielded an EC50 of 0.019 µM.
With `CC(c1c[nH]c(=O)c2cc(F)c(F)cc12)N(C)C(=O)Nc1cc(Cl)c(F)c(Cl)c1` (single isomer, unassigned) [Compound 438, 3-(3,5-Dichloro-4-fluorophenyl)-1-(1-(6,7-difluoro-1-oxo-1,2-dihydroisoquinolin-4-yl)ethyl)-1-methylurea] the EC50 was 6.5 µM.
`CC(C)CN(C(=O)Nc1ccc(F)cc1)C(C)c1c[nH]c(=O)c2c(F)cc(F)cc12` (single isomer, unassigned) [Compound 375, 1-(1-(6,8-Difluoro-1-oxo-1,2-dihydroisoquinolin-4-yl)ethyl)-3-(4-fluorophenyl)-1-isobutylurea] gave an EC50 of 1.7 µM.
In the case of `CC(c1c[nH]c(=O)c2ccccc12)N(Cc1ccncn1)C(=O)Nc1ccc(F)c(Cl)c1` (single isomer, unassigned) [Compound 322, 3-(3-Chloro-4-fluorophenyl)-1-(1-(1-oxo-1,2-dihydroisoquinolin-4-yl)ethyl)-1-(pyrimidin-4-ylmethyl)urea], the EC50 is reported as 0.35 µM.
Work on `CC(c1c[nH]c(=O)c2cc(F)c(F)cc12)N(C)C(=O)Nc1cccc(F)c1F` (single isomer, unassigned) [Compound 431, 1-(1-(6,7-Difluoro-1-oxo-1,2-dihydroisoquinolin-4-yl)ethyl)-3-(2,3-difluorophenyl)-1-methylurea] yielded an EC50 of 0.29 µM.
For `CC(c1c[nH]c(=O)c2ccccc12)N(Cc1cncs1)C(=O)Nc1ccc(F)c(Cl)c1` (single isomer, unassigned) [Compound 324, 3-(3-Chloro-4-fluorophenyl)-1-(1-(1-oxo-1,2-dihydroisoquinolin-4-yl)ethyl)-1-(thiazol-5-ylmethyl)urea], the EC50 was 4.5 µM.
For `CC(c1c[nH]c(=O)c2ccccc12)N(Cc1nccs1)C(=O)Nc1ccc(F)c(Cl)c1` (single isomer, unassigned) [Compound 310, 3-(3-Chloro-4-fluorophenyl)-1-(1-(1-oxo-1,2-dihydroisoquinolin-4-yl)ethyl)-1-(thiazol-2-ylmethyl)urea], the EC50 was 5.5 µM.
In the case of `CC(c1c[nH]c(=O)c2ccccc12)N(Cc1ccncc1)C(=O)Nc1ccc(F)c(Cl)c1` (single isomer, unassigned) [Compound 308, 3-(3-Chloro-4-fluorophenyl)-1-(1-(1-oxo-1,2-dihydroisoquinolin-4-yl)ethyl)-1-(pyridin-4-ylmethyl) urea], the EC50 is reported as 0.13 µM.
Work on `CC(c1c[nH]c(=O)c2cc(F)c(F)cc12)N(C)C(=O)Nc1ccc2cc[nH]c2c1` (single isomer, unassigned) [Compound 485, 1-(1-(6,7-Difluoro-1-oxo-1,2-dihydroisoquinolin-4-yl)ethyl)-3-(1H-indol-6-yl)-1-methylurea] yielded an EC50 of 9.9 µM.
`CC(c1cn(C)c(=O)c2cc(F)c(F)cc12)N(C)C(=O)Nc1ccc(F)c(Cl)c1` (single isomer, unassigned) [Compound 340, 3-(3-Chloro-4-fluorophenyl)-1-(1-(6,7-difluoro-2-methyl-1-oxo-1,2-dihydroisoquinolin-4-yl)ethyl)-1-methylurea] gave an EC50 of 4.6 µM.

Same assay, conditions: Hepatitis B virus, HepDE19, HepDE19 assay, inhibition of formation of rcDNA; read-out: DE-19bDNA EC50
`COc1ncc(C(C)N(C)C(=O)Nc2ccc(F)c(Cl)c2)c2ccccc12` (single isomer, unassigned) [Compound 30, 3-(3-chloro-4-fluorophenyl)-1-(1-(1-methoxyisoquinolin-4-yl)ethyl)-1-methylurea] showed an EC50 of 0.56 µM.
Work on `CC(C)CN(C(=O)Nc1ccc(F)cc1)C(C)c1cn(CC(F)(F)F)c(=O)c2ccccc12` (racemic) [Compound 235, 3-(4-Fluorophenyl)-1-isobutyl-1-(1-(1-oxo-2-(2,2,2-trifluoroethyl)-1,2-dihydroisoquinolin-4-yl)ethyl)urea] yielded an EC50 of 0.21 µM.
`COc1ncc(C(C)N(C)C(=O)Nc2ccc(F)c(Cl)c2)c2nccnc12` (racemic) [Compound 137, 3-(3-chloro-4-fluorophenyl)-1-(1-(5-methoxypyrido[3,4-b]pyrazin-8-yl)ethyl)-1-methylurea] gave an EC50 of 6.1 µM.
In the case of `CN(Cc1cnc(OCc2ncn(C)n2)c2ccccc12)C(=O)Nc1ccc(F)c(Cl)c1` [Compound 87, 3-(3-Chloro-4-fluorophenyl)-1-methyl-1-((1-((1-methyl-1H-1,2,4-triazol-3-yl)methoxy)isoquinolin-4-yl)methyl)urea], the EC50 is reported as 0.47 µM.

Same assay, conditions: Hepatitis B virus, HepDE19, read-out: DE-19bDNA EC50 (μM), HepDE19 assay, inhibition of formation of relaxed circular DNA (rcDNA), bDNA quantitation
With `CC(c1c[nH]c(=O)c2c(F)c(F)ccc12)N(C)C(=O)NCc1ccccc1` (single isomer, unassigned) [Compound 453, 3-Benzyl-1-(1-(7,8-difluoro-1-oxo-1,2-dihydroisoquinolin-4-yl)ethyl)-1-methylurea] the EC50 was 0.29 µM.

Same assay, conditions: read-out: DE-19bDNA EC50; HepDE19 assay, inhibition of formation of relaxed circular DNA (rcDNA), bDNA quantitation
Work on `CC(c1c[nH]c(=O)c2c(F)c(F)ccc12)N(C)C(=O)Nc1ccc(Cl)cc1` (single isomer, unassigned) [Compound 444, 3-(4-Chlorophenyl)-1-(1-(7,8-difluoro-1-oxo-1,2-dihydroisoquinolin-4-yl)ethyl)-1-methylurea] yielded an EC50 of 17 µM.
